From ChEMBL document CHEMBL4765469, “2-((3,5-Dinitrobenzyl)thio)quinazolinones: Potent Antimycobacterial Agents Activated by Deazaflavin (F)-Dependent Nitroreductase (Ddn)” (J Med Chem, 2021)
Values after ≈ are worked out from the molar mass of the structure shown.

Assays:
[1] = tested on: Mycobacterium tuberculosis; assay: Antitubercular activity against Mycobacterium tuberculosis H37Rv ATCC 27294 grown under Middlebrook 7H9 Broth assessed as inhibition of all visible growth incubated for 7 to 14 days; assay type: functional; conditions: time 7-14 day
[2] = Cytotoxicity in human MRC5 cells by neutral red uptake assay; assay type: cell-based
[3] = tested on: Mycobacterium tuberculosis; assay: Antitubercular activity against Mycobacterium tuberculosis H37Rv ATCC 27294 grown under 7H9/ADC assessed as inhibition of all visible growth incubated for 7 to 14 days; assay type: functional; conditions: time 7-14 day
[4] = tested on: Mycobacterium tuberculosis; assay: Antitubercular activity against Mycobacterium tuberculosis H37Rv ATCC 27294 grown under GAST/Fe medium assessed as inhibition of all visible growth incubated for 7 to 14 days; assay type: functional; conditions: time 7-14 day
[5] = tested on: Mycobacterium tuberculosis; assay: Antitubercular activity against Mycobacterium tuberculosis H37Rv ATCC 27294 grown under 7H9/ glucose liquid culture in presence of BSA assessed as inhibition of all visible growth incubated for 7 to 14 days; assay type: functional; conditions: time 7-14 day
[6] = tested on: Mycobacterium tuberculosis; assay: Ratio of MIC for antitubercular activity against Mycobacterium tuberculosis H37Rv ATCC 27294 grown under 7H9/ glucose liquid culture in presence of BSA to MIC for antitubercular activity against Mycobacterium tuberculosis H37Rv ATCC 27294 grown under 7H9/ glucose liquid culture; assay type: functional; conditions: read-out: MIC>99
[7] = tested on: Mycobacterium tuberculosis; assay: Antitubercular activity against Mycobacterium tuberculosis 14A1 deficient in nitroreductase rv3547 assessed as inhibition of all visible growth grown under 7H9/ glucose liquid culture incubated for 7 to 14 days; assay type: functional; conditions: time 7-14 day
[8] = (§1) Inhibition of Mycobacterium tuberculosis thymidylate kinase in presence of ATP, dTMP, NADH and phosphoenol pyruvate by spectrophotometric assay
[9] = tested on: Mycobacterium tuberculosis; assay: as §1
[10] = tested on: Mycobacterium tuberculosis; assay: Antitubercular activity against Mycobacterium tuberculosis H37Rv; assay type: functional
[11] = Inhibition of Mycobacterium tuberculosis thymidylate kinase
[12] = Genotoxicity in Salmonella typhimurium TA100 up to 349 uM incubated for 48 hrs in absence of rat liver S9 fraction by Ames test; assay type: toxicity; conditions: salmonella enterica subsp. enterica serovar typhimurium, s9, 48 h
[13] = Genotoxicity in Salmonella typhimurium TA98 up to 349 uM incubated for 48 hrs in absence of rat liver S9 fraction by Ames test; assay type: toxicity; conditions: salmonella enterica subsp. enterica serovar typhimurium, s9, 48 h
[14] = Genotoxicity in Salmonella typhimurium TA100 up to 349 uM incubated for 48 hrs in presence of rat liver S9 fraction by Ames test; assay type: toxicity, subcellular; conditions: salmonella enterica subsp. enterica serovar typhimurium, s9, 48 h
[15] = Genotoxicity in Salmonella typhimurium TA98 up to 349 uM incubated for 48 hrs in presence of rat liver S9 fraction by Ames test; assay type: toxicity, subcellular; conditions: salmonella enterica subsp. enterica serovar typhimurium, s9, 48 h

SMILES	MIC99 [1]	CC50 [2]	MIC99 [4]	MIC99 [5]	MIC ratio, with BSA / without BSA [6]	other results
O=c1[nH]c(SCc2ccccc2Cl)nc2ccccc12	2.3 µM (≈ 0.696 µg/mL)	> 65 µM	37 µM (≈ 11.2 µg/mL)	> 50 µM	> 21.7 µM	MIC99 [3]: > 50 µM
O=c1[nH]c(SCc2cc([N+](=O)[O-])cc([N+](=O)[O-])c2)nc2ccc(N3CCCCC3)cc12	> 50 µM	> 64 µM				
O=c1[nH]c(SCc2cc([N+](=O)[O-])cc([N+](=O)[O-])c2)nc2ccc(F)cc12	1.2 µM (≈ 0.452 µg/mL)	> 64 µM	1.2 µM (≈ 0.452 µg/mL)	6.25 µM	52 µM	MIC99 [7]: 6.25 µM (≈ 2.35 µg/mL)
O=c1[nH]c(SCc2cc([N+](=O)[O-])cc([N+](=O)[O-])c2)nc2ccncc12	> 50 µM	> 64 µM				
O=c1[nH]c(SCc2cccc([N+](=O)[O-])c2)nc2ccccc12	> 50 µM	> 64 µM				
COc1cccc(CSc2nc3ccccc3c(=O)[nH]2)c1	0.78 µM (≈ 0.233 µg/mL)	> 64 µM	50 µM (≈ 14.9 µg/mL)	> 50 µM	> 64 µM	MIC99 [3]: > 50 µM
O=c1[nH]c(SCc2cc([N+](=O)[O-])cc([N+](=O)[O-])c2)nc2ncccc12	≥ 50 µM	> 64 µM				
N#Cc1c(-c2cccc(Br)c2)nc(SCc2ccccc2)[nH]c1=O	25 µM (≈ 9.96 µg/mL)	> 36 µM				IC50 [8]: 49 µM
O=c1[nH]c(SCc2c([N+](=O)[O-])cccc2[N+](=O)[O-])nc2ccccc12	> 50 µM	> 64 µM				
O=c1[nH]c(SCc2cc([N+](=O)[O-])cc([N+](=O)[O-])c2)nc2cccc(Cl)c12	≥ 50 µM	> 64 µM				
O=c1[nH]c(SCc2cc([N+](=O)[O-])cc([N+](=O)[O-])c2)nc2ccc(N3CCOCC3)cc12	4.7 µM (≈ 2.08 µg/mL)	> 64 µM	3.13 µM (≈ 1.39 µg/mL)	3.13 µM	0.66 µM	MIC99 [7]: 19 µM (≈ 8.43 µg/mL)
COc1ccccc1CSc1nc2ccccc2c(=O)[nH]1	> 50 µM					
NNC(=O)c1ccncc1						MIC>99 [9]: 0.15 µM
O=c1[nH]c(SCc2ccc(-c3ccccc3)cc2)nc2ccccc12	> 50 µM	> 64 µM				
CSc1cc(-c2ccccc2)nc(O)c1C#N						MIC [10]: > 64 µM
O=c1[nH]c(SCc2ccc([N+](=O)[O-])cc2)nc2ccccc12	≥ 50 µM	> 64 µM				
O=c1[nH]c(SCc2ccc([N+](=O)[O-])cc2[N+](=O)[O-])nc2ccccc12	> 50 µM	> 64 µM				
O=c1[nH]c(SCc2cc([N+](=O)[O-])cc([N+](=O)[O-])c2)nc2c(Cl)cccc12	> 50 µM	> 64 µM				
CN(C)c1ccc2nc(SCc3cc([N+](=O)[O-])cc([N+](=O)[O-])c3)[nH]c(=O)c2c1	> 50 µM	14 µM				
CSc1nc(-c2cccc(Br)c2)c(C#N)c(=O)[nH]1	25 µM (≈ 8.05 µg/mL)	> 64 µM				IC50 [8]: 82 µM
O=C(CSc1nc2c(F)cccc2c(=O)[nH]1)NC1CCC(F)(F)CC1						MIC [10]: 0.09 µM
COc1ccc(CSc2nc3ccccc3c(=O)[nH]2)cc1	> 50 µM	> 64 µM				
Oc1nc(SCc2cccc(Cl)c2)nc2ccccc12	3.13 µM (≈ 0.948 µg/mL)	> 64 µM	19 µM (≈ 5.75 µg/mL)	> 50 µM	> 16 µM	MIC99 [3]: > 50 µM
O=c1[nH]c(SCc2ccc(Cl)c(Cl)c2)nc2ccccc12	> 50 µM	> 64 µM				
O=c1[nH]c([S+]([O-])Cc2cc([N+](=O)[O-])cc([N+](=O)[O-])c2)nc2ccccc12 (stereo not given)	50 µM (≈ 18.7 µg/mL)	> 64 µM				IC50 [8]: 217 µM

SMILES	MIC99 [1]	CC50 [2]	MIC99 [4]	MIC99 [5]	MIC ratio, with BSA / without BSA [6]	other results
O=C(CSc1nc2ccccc2c(=O)[nH]1)NC1CCCCC1						MIC [10]: 0.3 µM
O=c1[nH]c(SCc2cccs2)nc2ccccc12	> 50 µM	> 64 µM				
CC1CCN(Cc2c(O)ccc3oc4c5ccccc5oc(=O)c4c23)CC1						MIC [10]: 0.125 µg/mL
CCOC(=O)C1=C(NC(=O)c2c(F)c(F)c(F)c(F)c2F)OC2CN(CC)CCC12 (stereo not given)						MIC [10]: 0.69 µM
Cc1ccc2nc(SCc3cc([N+](=O)[O-])cc([N+](=O)[O-])c3)[nH]c(=O)c2c1	1.56 µM (≈ 0.581 µg/mL)	> 64 µM	1.56 µM (≈ 0.581 µg/mL)	6.25 µM	4 µM	MIC99 [7]: > 50 µM
O=c1[nH]c(SCc2cc([N+](=O)[O-])cc([N+](=O)[O-])c2)nc2ccc(Cl)cc12	0.78 µM (≈ 0.306 µg/mL)	> 64 µM	0.2 µM (≈ 0.0786 µg/mL)	3.13 µM	4 µM	MIC99 [3]: 4.7 µM (≈ 1.85 µg/mL)
O=c1[nH]c(SCc2cc([N+](=O)[O-])cc([N+](=O)[O-])c2)nc2cnccc12	> 50 µM	> 64 µM				
Oc1nc(SCc2ccc(Cl)cc2)nc2ccccc12	> 50 µM	> 64 µM				
CN1CCN(c2ccc3nc(SCc4cc([N+](=O)[O-])cc([N+](=O)[O-])c4)[nH]c(=O)c3c2)CC1	9.4 µM (≈ 4.29 µg/mL)	49 µM	9.4 µM (≈ 4.29 µg/mL)	9.4 µM	1 µM	MIC99 [7]: 37 µM (≈ 16.9 µg/mL)
CCOC(=O)c1c(-c2ccccc2)oc2ccc(O)c(CN3CCC(C)CC3)c12						MIC [10]: 1 µg/mL
O=c1[nH]c(SCc2cc([N+](=O)[O-])cc([N+](=O)[O-])c2)nc2cc(Cl)ccc12	2.3 µM (≈ 0.903 µg/mL)	> 64 µM	0.72 µM (≈ 0.283 µg/mL)	25 µM	10.8 µM	MIC99 [3]: 25 µM (≈ 9.82 µg/mL)
COc1cccc(-c2cc(SC)c(C#N)c(=O)[nH]2)c1						IC50 [11]: 1.5 µM; MIC [10]: > 64 µM
O=c1[nH]c(SCc2cc([N+](=O)[O-])cc([N+](=O)[O-])c2)nc2ccc(Br)cc12	3.13 µM (≈ 1.37 µg/mL)	> 64 µM	3.13 µM (≈ 1.37 µg/mL)	37 µM	11.8 µM	MIC99 [7]: > 50 µM
O=c1[nH]c(SCc2cc([N+](=O)[O-])cc([N+](=O)[O-])c2)nc2cccnc12	19 µM (≈ 6.83 µg/mL)	> 64 µM	12.5 µM (≈ 4.49 µg/mL)	> 50 µM	> 2.6 µM	MIC99 [7]: 50 µM (≈ 18 µg/mL)
O=c1[nH]c(SCc2ccccc2[N+](=O)[O-])nc2ccccc12	12.5 µM (≈ 3.92 µg/mL)	> 64 µM	25 µM (≈ 7.83 µg/mL)	> 50 µM	> 4 µM	MIC99 [3]: > 50 µM
O=c1[nH]c(SCc2cc([N+](=O)[O-])cc(C(F)(F)F)c2)nc2ccccc12	> 50 µM	> 64 µM				
N#Cc1c(-c2cccc(Br)c2)nc(SCc2cc([N+](=O)[O-])cc([N+](=O)[O-])c2)[nH]c1=O	> 64 µM	> 64 µM				IC50 [8]: 4.3 µM
O=c1[nH]c(SCc2cc([N+](=O)[O-])cc([N+](=O)[O-])c2)nc2ccccc12	0.6 µM (≈ 0.215 µg/mL)	> 64 µM	0.78 µM (≈ 0.28 µg/mL)	1.56 µM	2.6 µM	IC50 [8]: 120 µM; MIC99 [3]: 2.3 µM (≈ 0.824 µg/mL); Activity [12]: Non-Toxic; Activity [13]: Toxic; Activity [14]: Non-Toxic; Activity [15]: Non-Toxic; MIC99 [7]: 12.5 µM (≈ 4.48 µg/mL)
O=c1[nH]c(SCc2ccc([N+](=O)[O-])o2)nc2ccccc12	> 50 µM	35 µM				
Cc1ccc(CSc2nc(O)c3ccccc3n2)cc1	> 50 µM	> 64 µM				
O=[N+]([O-])c1ccc2c(c1)Cc1ccccc1-2 [2-NITROFLUORENE]						Activity [13]: Toxic
O=c1[nH]c(SCc2ccc([N+](=O)[O-])s2)nc2ccccc12	350 µM (≈ 112 µg/mL)	> 64 µM				
CCOC(=O)C1=C(NC(=O)c2c(F)c(F)c(F)c(F)c2F)OC(C(N)=O)C1C (stereo not given)						MIC [10]: 0.5 µM
O=c1[nH]c(SCc2ccccc2)nc2ccccc12	12.5 µM (≈ 3.35 µg/mL)	> 64 µM	19 µM (≈ 5.1 µg/mL)	> 50 µM	> 4 µM	MIC99 [3]: > 50 µM
Cn1c(SCc2cc([N+](=O)[O-])cc([N+](=O)[O-])c2)nc2ccccc2c1=O	1.56 µM (≈ 0.581 µg/mL)	> 64 µM	0.39 µM (≈ 0.145 µg/mL)	3.13 µM	2 µM	MIC99 [3]: 3.13 µM (≈ 1.17 µg/mL)
